Reference: patent US20190046600A1, “COMPOSITIONS AND USES THEREOF” (priority 2016, published 2019)
Entries after “also recorded” stand apart in the source; their conditions may differ. Square brackets hold non-standard residues; d marks the D form. Peptide text beside a SMILES is read from it. Phe(4-guanidino) = N=C(N)Nc1ccc(C[C@H](N)C(=O)O)cc1

What was measured:
[1] = test system: NCI-H460 human non-small cell cancer; experiment: In vitro cytotoxicity of Olaparib on NCI-H460, alamarBlue, 96 h; type: cell-based; conditions: 30 nM Olaparib
Experimental: 2) Cells were harvested and seeded into 96-well plates at 500 cells/well. […] Final DMSO concentration was 0.3%. 4) Cells were grown with compound for 96 hours at 37° C. 5% CO2 in a humidified atmosphere. 5) AlamarBlue® cell viability reagent (Life Technologies, Inc.) 10% (v/v) was then added and incubated for a further 4 hours, and fluorescent product detected using the BMG FLUOstar plate reader. 6) Data were analysed using a 4-parameter logistic equation in GraphPad Prism.

NCI-H460 cells [2] = experiment: HILR-001 with or without 30 nM Olaparib on NCI-H460, alamarBlue and CellTiter-Glo time course; type: cell-based, human
Experimental: At each time point cell viability was measured by two assay readouts, alamarBlue® and CellTiter-Glo. Conversion of alamarBlue® to a fluorescent product serves as a readout of the metabolic activity of cells, whereas CellTiter-Glo is based on quantification of the ATP present.
2) Cells were harvested and seeded into 96-well plates at 500 cells/well. 3) HILR-001 was made up from a 10 mM stock solution and added directly to cells in doubling dilutions starting at 200 μM. […] The total final DMSO concentration was 0.25%. 4) Cells were grown with compound for 24, 48, 72 or 96 hours at 37° C. 5% CO2 in a humidified atmosphere. 5) AlamarBlue® 10% (v/v) was then added and incubated for a further 4 hours, and fluorescent product detected using the BMG FLUOstar plate reader. 6) On duplicate plates the media was removed from the cells, CellTiter-Glo was diluted in PBS (1:10) and 100 μl added to the cells. 7) Plates were mixed on an orbital shaker for 2 minutes and incubated for a further 10 minutes at room temperature. Luminescent signal was then measured using the BMG FLUOstar plate reader.

[3] = molecular target: T1, recombinant human caspase 3 (Homo sapiens, UniProt P42574); experiment: Apo-ONE Homogeneous Caspase-3/7 assay with recombinant caspase-3; type: biochemical; conditions: 0.1 or 0.3 U enzyme
T1 construct: purchased Enzo Life Sciences BML-SE169-5000
T1 sequence (P42574 29-175 limits assumed): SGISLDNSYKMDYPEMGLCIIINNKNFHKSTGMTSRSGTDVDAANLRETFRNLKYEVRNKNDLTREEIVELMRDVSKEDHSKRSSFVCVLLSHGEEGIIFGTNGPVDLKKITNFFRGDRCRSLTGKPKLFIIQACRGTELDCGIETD
T1 sequence (P42574 176-277 limits assumed): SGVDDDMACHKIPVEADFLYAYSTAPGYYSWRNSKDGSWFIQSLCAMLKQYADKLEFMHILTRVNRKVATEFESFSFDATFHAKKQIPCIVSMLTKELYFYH
Excerpt: DEVD-CHO was used as a positive control.
The Promega kit consists of a buffer that supports caspase 3/7 enzymatic activity and the caspase-3/7 substrate rhodamine 110, bis-(N-CBZL-aspartyl-L-glutamyl-L-valyl-L-aspartic acid amide; Z-DEVD-R110) Z-DEVD-R110 exists as a pro-fluorescent substrate prior to the assay;
upon sequential cleavage and removal of the DEVD peptides by caspase-3/7 activity and excitation at 499 nm, the rhodamine 110 leaving group becomes fluorescent. The amount of fluorescent product generated is reported to be proportional to the amount of caspase-3/7 cleavage that occurs in the sample.
In all subsequent experiments, 0.1 U enzyme was used and plate reader settings were adjusted to read every 5 min for 2h.
The DEVD-CHO control or HILR-030 were co-incubated for 2 hours with substrate or human recombinant caspase-3 according to the protocol in the table below.

[4] = test system: Lactate Dehydrogenase A [LDHA]; experiment: LDH activity assay on lysates of treated NCI-H460 cells (Abcam ab102526); type: cell-based, human; conditions: NCI-H460 cells treated 24 h or 96 h, normalised to protein; read-out: IC50 for inhibiting the activity of LDH
Experimental: An LDH activity assay was conducted on samples derived from NCI-H460 cells treated with 2 test compounds (HILR-025 and HILR-030) for either 24h or 96h. […] Therefore a BCA assay was conducted to estimate the total amount of protein present in each LDH assay lysate and this was used to normalise the enzyme activity data. As an indication of cell viability, an Alamar blue assay was also carried out at both timepoints, to serve as an additional point of reference.
2) Cells were harvested and seeded into 96-well plates at either 500 cells/well (for the 96h timepoint) or 5000 cells/well for the 24h timepoint. […] 6) At the end of the assay (24 or 96h), Alamar blue 10% (v/v) was added to one set of plates, incubated for a further 4 hours, and fluorescent product detected using the BMG FLUOstar plate reader. […] 10) LDH activity was measured in the cleared lysates using an LDH activity kit (Abcam, ab102526). 11) After preparation of the LDH activity assay reactions, according to the manufacturer's instructions, absorbance at 450 nm was measured at the initial time to determine (A450)initial 12) Further absorbance readings were taken at 3 minute intervals for up to 15 minutes. […] 16) The LDH activity of each sample was determined by the following equation:
[formula] […] Protein content in remaining cleared lysates was determined using a BCA assay (ThermoScientific). • b. Data were analysed using GraphPad Prism. […]

NCI-H460 cells [5] = conditions: NCI-H460, 96 hours with compound, alamarBlue
Experimental: Methods measuring cell viability include the use of alamarBlue® cell viability reagent (Life Technologies, Inc.) (resazurin) with fluorescence detection.
1) NCI-H460 cells were grown in Ham's F12 media supplemented with 10% FBS. 2) Cells were harvested and seeded into 96-well plates at 500 cells/well. 3) Compounds were made up from stock solutions and added directly to cells in doubling dilutions starting at 200 μM. Final DMSO concentration was 0.2%. 4) Cells were grown with compound for 96 hours at 37° C. 5% CO2 in a humidified atmosphere. 5) A resazurin dye composition (AlamarBlue® cell viability reagent (Life Technologies, Inc.)) 10% (v/v) was then added and incubated for a further 4 hours, and fluorescent product detected using the BMG FLUOstar plate reader. 6) Media only background readings were subtracted before data were analysed using a 4-parameter logistic equation in GraphPad Prism.

[6] = 30 nM Olaparib co-incubated with 50 μM HILR-001

Row | Compound | toxicity to NCI-H460 cells [1] | ATP levels (CellTiter-Glo) (NCI-H460 cells [2]; [6]) | HILR-001-mediated cell death (alamarBlue) (NCI-H460 cells [2]; [6]) | ATP levels or cancer cell death (NCI-H460 cells [2]; Olaparib with higher doses of HILR-001 (100 μM and 200 μM)) | caspase-3 activity [3] | IC50 [4] | IC50 (NCI-H460 cells [5])
1 | O=C(c1cc(Cc2n[nH]c(=O)c3ccccc23)ccc1F)N1CCN(C(=O)C2CC2)CC1 [Olaparib, 4-[3-(4-cyclopropanecarbonylpiperazine-1-carbonyl)-4-fluorobenzyl]-2H-phthalazin-1-one] | non-toxic | partially reverses the HILR-001-induced fall in ATP; also recorded: partially restored ATP levels | reversed 50 μM HILR-001-mediated cell death | did not affect ATP levels or cancer cell death |  |  | 
2 | CC(C)[C@@H]1NC(=O)[C@@H]2CCCN2C(=O)[C@H](CCCNC(=N)N)NC(=O)[C@@H]2CCCN2C(=O)CNC(=O)[C@H](CCCNC(=N)N)NC(=O)[C@@H]2CCCN2C(=O)[C@H](Cc2c[nH]c3ccccc23)NC(=O)[C@H](Cc2c[nH]c3ccccc23)NC(=O)[C@H](Cc2ccc(NC(=N)N)cc2)NC(=O)[C@H](Cc2ccc(NC(=N)N)cc2)NC(=O)[C@H](Cc2c[nH]c3ccccc23)NC(=O)[C@H](Cc2c[nH]c3ccccc23)NC(=O)[C@H](Cc2ccc(NC(=N)N)cc2)NC(=O)[C@H](Cc2ccc(NC(=N)N)cc2)NC(=O)[C@H](Cc2c[nH]c3ccccc23)NC(=O)[C@H](Cc2c[nH]c3ccccc23)NC1=O [HILR-030] (cyclo(PRGPRPVWW[Phe(4-guanidino)][Phe(4-guanidino)]WW[Phe(4-guanidino)][Phe(4-guanidino)]WW)) |  |  |  |  | inhibited the caspase-3 activity in a dose-dependent fashion | 22 µM | 6 µM
